{"source": "PubChem BioAssay (NCI)", "assay_in_all_cases": "growth of human tumour cells (NCI), 48 h", "key": {"[1]": {"system": "SK-MEL-5 melanoma"}, "[2]": {"system": "A498 renal"}, "[3]": {"system": "T-47D breast"}, "[4]": {"system": "OVCAR-8 ovarian"}, "[5]": {"system": "U251 CNS"}, "[6]": {"system": "SF-295 CNS"}, "[7]": {"system": "SN12C renal"}, "[8]": {"system": "UACC-257 melanoma"}, "[9]": {"system": "MDA-N"}, "[10]": {"system": "SF-539 CNS"}, "[11]": {"system": "NCI-H23 lung"}, "[12]": {"system": "NCI-H522 lung"}, "[13]": {"system": "SF-268 CNS"}, "[14]": {"system": "MCF7 breast"}, "[15]": {"system": "PC-3 prostate"}, "[16]": {"system": "UO-31 renal"}}, "note": "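Protocol summary: plate cells (96-well), add compound at 5 concentrations, incubate 48 h, interpolate endpoints linearly. TGI: total growth inhibition.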", "data": [{"compound": "N#Cc1c2c(c(Nc3cccc(C(F)(F)F)c3)n3c1nc1ccccc13)CCCC2", "values": [{"measurement": "TGI", "setting": "[1]", "value": "> 100", "unit": "µM"}, {"measurement": "TGI", "setting": "[2]", "value": 94.9, "unit": "µM"}, {"measurement": "TGI", "setting": "[3]", "value": "> 100", "unit": "µM"}, {"measurement": "TGI", "setting": "[4]", "value": 34.1, "unit": "µM"}, {"measurement": "TGI", "setting": "[5]", "value": 23.7, "unit": "µM"}, {"measurement": "TGI", "setting": "[6]", "value": "> 100", "unit": "µM"}, {"measurement": "TGI", "setting": "[7]", "value": 88.8, "unit": "µM"}, {"measurement": "TGI", "setting": "[8]", "value": "> 100", "unit": "µM"}, {"measurement": "TGI", "setting": "[9]", "value": 56.7, "unit": "µM"}, {"measurement": "TGI", "setting": "[10]", "value": 31, "unit": "µM"}, {"measurement": "TGI", "setting": "[11]", "value": 89.2, "unit": "µM"}, {"measurement": "TGI", "setting": "[12]", "value": 22.1, "unit": "µM"}, {"measurement": "TGI", "setting": "[13]", "value": 43.1, "unit": "µM"}]}, {"compound": "O=C(O)CCC1(CCC(=O)O)CCCCCCCCC(CCC(=O)O)(CCC(=O)O)C(=O)C1=O", "values": [{"measurement": "TGI", "setting": "[3]", "value": "> 100", "unit": "µM"}, {"measurement": "TGI", "setting": "[14]", "value": "> 100", "unit": "µM"}, {"measurement": "TGI", "setting": "[4]", "value": "> 100", "unit": "µM"}, {"measurement": "TGI", "setting": "[5]", "value": "> 100", "unit": "µM"}, {"measurement": "TGI", "setting": "[6]", "value": "> 100", "unit": "µM"}, {"measurement": "TGI", "setting": "[7]", "value": "> 100", "unit": "µM"}, {"measurement": "TGI", "setting": "[8]", "value": "> 100", "unit": "µM"}, {"measurement": "TGI", "setting": "[15]", "value": "> 100", "unit": "µM"}, {"measurement": "TGI", "setting": "[10]", "value": "> 100", "unit": "µM"}, {"measurement": "TGI", "setting": "[11]", "value": "> 100", "unit": "µM"}, {"measurement": "TGI", "setting": "[12]", "value": "> 100", "unit": "µM"}, {"measurement": "TGI", "setting": "[13]", "value": "> 100", "unit": "µM"}]}, {"compound": "Cc1cc(N(CCC#N)CCC#N)ccc1/C=C(\\N=[N+]=[N-])C(=O)NC(=O)COc1ccccc1", "values": [{"measurement": "TGI", "setting": "[1]", "value": "> 100", "unit": "µM"}, {"measurement": "TGI", "setting": "[2]", "value": "> 100", "unit": "µM"}, {"measurement": "TGI", "setting": "[4]", "value": "> 100", "unit": "µM"}, {"measurement": "TGI", "setting": "[5]", "value": "> 100", "unit": "µM"}, {"measurement": "TGI", "setting": "[6]", "value": "> 100", "unit": "µM"}, {"measurement": "TGI", "setting": "[7]", "value": "> 100", "unit": "µM"}, {"measurement": "TGI", "setting": "[16]", "value": "> 100", "unit": "µM"}, {"measurement": "TGI", "setting": "[8]", "value": "> 100", "unit": "µM"}, {"measurement": "TGI", "setting": "[10]", "value": "> 100", "unit": "µM"}, {"measurement": "TGI", "setting": "[11]", "value": "> 100", "unit": "µM"}, {"measurement": "TGI", "setting": "[12]", "value": "> 100", "unit": "µM"}, {"measurement": "TGI", "setting": "[13]", "value": "> 100", "unit": "µM"}]}, {"compound": "O=S1(=O)OCCOS(=O)(=O)C1(Br)Br", "values": [{"measurement": "TGI", "setting": "[1]", "value": "> 100", "unit": "µM"}, {"measurement": "TGI", "setting": "[4]", "value": "> 100", "unit": "µM"}, {"measurement": "TGI", "setting": "[6]", "value": "> 100", "unit": "µM"}, {"measurement": "TGI", "setting": "[7]", "value": "> 100", "unit": "µM"}, {"measurement": "TGI", "setting": "[16]", "value": "> 100", "unit": "µM"}, {"measurement": "TGI", "setting": "[8]", "value": "> 100", "unit": "µM"}, {"measurement": "TGI", "setting": "[10]", "value": "> 100", "unit": "µM"}, {"measurement": "TGI", "setting": "[11]", "value": "> 100", "unit": "µM"}, {"measurement": "TGI", "setting": "[12]", "value": "> 100", "unit": "µM"}, {"measurement": "TGI", "setting": "[13]", "value": "> 100", "unit": "µM"}]}, {"compound": "CCOC(=O)C(C(=O)OCC)S(C)(=O)=O", "values": [{"measurement": "TGI", "setting": "[1]", "value": "> 100", "unit": "µM"}, {"measurement": "TGI", "setting": "[2]", "value": "> 100", "unit": "µM"}, {"measurement": "TGI", "setting": "[4]", "value": "> 100", "unit": "µM"}, {"measurement": "TGI", "setting": "[5]", "value": "> 100", "unit": "µM"}, {"measurement": "TGI", "setting": "[6]", "value": "> 100", "unit": "µM"}, {"measurement": "TGI", "setting": "[7]", "value": "> 100", "unit": "µM"}, {"measurement": "TGI", "setting": "[16]", "value": "> 100", "unit": "µM"}, {"measurement": "TGI", "setting": "[8]", "value": "> 100", "unit": "µM"}, {"measurement": "TGI", "setting": "[10]", "value": "> 100", "unit": "µM"}, {"measurement": "TGI", "setting": "[11]", "value": "> 100", "unit": "µM"}, {"measurement": "TGI", "setting": "[12]", "value": "> 100", "unit": "µM"}]}, {"compound": "O=C(O)C1Cc2[nH]c3ccccc3c2C2CCCC12", "note": "(configuration not stated)", "values": [{"measurement": "TGI", "setting": "[1]", "value": "> 100", "unit": "µM"}, {"measurement": "TGI", "setting": "[2]", "value": "> 100", "unit": "µM"}, {"measurement": "TGI", "setting": "[4]", "value": "> 100", "unit": "µM"}, {"measurement": "TGI", "setting": "[5]", "value": "> 100", "unit": "µM"}, {"measurement": "TGI", "setting": "[6]", "value": "> 100", "unit": "µM"}, {"measurement": "TGI", "setting": "[7]", "value": "> 100", "unit": "µM"}, {"measurement": "TGI", "setting": "[16]", "value": "> 100", "unit": "µM"}, {"measurement": "TGI", "setting": "[8]", "value": "> 100", "unit": "µM"}, {"measurement": "TGI", "setting": "[10]", "value": "> 100", "unit": "µM"}, {"measurement": "TGI", "setting": "[11]", "value": "> 100", "unit": "µM"}, {"measurement": "TGI", "setting": "[12]", "value": "> 100", "unit": "µM"}, {"measurement": "TGI", "setting": "[13]", "value": "> 100", "unit": "µM"}]}, {"compound": "N#CCCN(c1ccc(C=Nc2ccc(C(=O)O)cc2)cc1)S(=O)(=O)c1ccccc1", "values": [{"measurement": "TGI", "setting": "[1]", "value": "> 100", "unit": "µM"}, {"measurement": "TGI", "setting": "[2]", "value": "> 100", "unit": "µM"}, {"measurement": "TGI", "setting": "[4]", "value": "> 100", "unit": "µM"}, {"measurement": "TGI", "setting": "[5]", "value": "> 100", "unit": "µM"}, {"measurement": "TGI", "setting": "[6]", "value": "> 100", "unit": "µM"}, {"measurement": "TGI", "setting": "[7]", "value": "> 100", "unit": "µM"}, {"measurement": "TGI", "setting": "[16]", "value": "> 100", "unit": "µM"}, {"measurement": "TGI", "setting": "[8]", "value": "> 100", "unit": "µM"}, {"measurement": "TGI", "setting": "[10]", "value": "> 100", "unit": "µM"}, {"measurement": "TGI", "setting": "[11]", "value": "> 100", "unit": "µM"}, {"measurement": "TGI", "setting": "[12]", "value": "> 100", "unit": "µM"}, {"measurement": "TGI", "setting": "[13]", "value": "> 100", "unit": "µM"}]}, {"compound": "CC(/C=C1\\CCC(CN(C)C)C1=O)c1cccc(Br)c1", "note": "(configuration not stated)", "values": [{"measurement": "TGI", "setting": "[1]", "value": 18.8, "unit": "µM"}, {"measurement": "TGI", "setting": "[2]", "value": "> 58.5", "unit": "µM"}, {"measurement": "TGI", "setting": "[4]", "value": 36.8, "unit": "µM"}, {"measurement": "TGI", "setting": "[5]", "value": 32.4, "unit": "µM"}, {"measurement": "TGI", "setting": "[6]", "value": 42.3, "unit": "µM"}, {"measurement": "TGI", "setting": "[7]", "value": 43.3, "unit": "µM"}, {"measurement": "TGI", "setting": "[16]", "value": 33.2, "unit": "µM"}, {"measurement": "TGI", "setting": "[8]", "value": 31.6, "unit": "µM"}, {"measurement": "TGI", "setting": "[10]", "value": 33.3, "unit": "µM"}, {"measurement": "TGI", "setting": "[11]", "value": 38, "unit": "µM"}, {"measurement": "TGI", "setting": "[12]", "value": 22, "unit": "µM"}, {"measurement": "TGI", "setting": "[13]", "value": 43.7, "unit": "µM"}]}, {"compound": "CC(C)(CN1CCCCC1)C(=O)CC(SCCS(=O)(=O)O)c1ccccc1", "note": "(configuration not stated)", "values": [{"measurement": "TGI", "setting": "[1]", "value": 31.4, "unit": "µM"}, {"measurement": "TGI", "setting": "[2]", "value": 32.1, "unit": "µM"}, {"measurement": "TGI", "setting": "[14]", "value": 33.4, "unit": "µM"}, {"measurement": "TGI", "setting": "[4]", "value": 65, "unit": "µM"}, {"measurement": "TGI", "setting": "[5]", "value": 53.2, "unit": "µM"}, {"measurement": "TGI", "setting": "[6]", "value": 26.5, "unit": "µM"}, {"measurement": "TGI", "setting": "[7]", "value": 58.6, "unit": "µM"}, {"measurement": "TGI", "setting": "[16]", "value": 25.1, "unit": "µM"}, {"measurement": "TGI", "setting": "[15]", "value": 77.1, "unit": "µM"}, {"measurement": "TGI", "setting": "[9]", "value": 34.6, "unit": "µM"}, {"measurement": "TGI", "setting": "[10]", "value": 60.3, "unit": "µM"}, {"measurement": "TGI", "setting": "[12]", "value": 5.83, "unit": "µM"}, {"measurement": "TGI", "setting": "[13]", "value": 65.8, "unit": "µM"}]}]}
